# Source: paper PMC7898037, “Improving mitochondria and ER stability helps eliminate upper motor neuron degeneration that occurs due to mSOD1 toxicity and TDP‐43 pathology” (Clinical and Translational Medicine, 2021)
# Tests used:
# cortical neurons = system: cortical neurons; set-up: method as in earlier work; conditions: ref 53 (compound 2), ref 54 (NU‐9); cited from earlier work
# [1] = system: UMNs in the motor cortex of WT‐UeGFP mice; test: UMN quantification in motor cortex, WT‐UeGFP mice; assay type: in vivo
# Method: (§1) hSOD1^G93A‐UeGFP, prpTDP‐43^A315T‐UeGFP and WT‐UeGFP mice were weighed and the required NU‐9 dose per weight was calculated (20 or 100 mg/kg), which was administered once daily by oral gavage, starting at postnatal day (P)60 and continuing until P120. Animals from the untreated group received the vehicle (NMP and olive oil) only. For oral administration purposes, 20 ga × 38 mm plastic feeding tubes were used (Instech Laboratories, Inc). The gavage tip was inserted into the mouth directly over the tongue and into the pharynx. While observing the swallowing reflex, the tip was safely and smoothly slid into the esophagus. Once the administration was completed, the gavage tip was pulled straight out.
# (§2) Since UMNs are genetically labeled with eGFP expression in the motor cortex of WT‐UeGFP, hSOD1^G93A‐UeGFP, and prpTDP‐43^A315T‐UeGFP mice, UMNs were identified based on the GFP expression. Quantitative analyses were performed on three matched rostrocaudal sections spanning the motor cortex. Three images per subject were taken to capture a 4× objective filed that encompass layer 5 of the motor cortex. An inverted epifluorescent Eclipse TE2000‐E microscope (Nikon) with the same exposure time and intensity was used. UMNs were counted only if their soma and apical dendrite were both visualized in the same 50‐µm thick section. Images were analyzed in ImageJ (NIH) using the Find maxima processing command to determine the local maxima within a predetermined region of interest that circumscribes the layer 5 of the motor cortex. A universal noise tolerance, which ignores the local maxima corresponding to background and autofluorescence, was applied to all images.
# [2] = system: UMN apical dendrites of prpTDP‐43^A315T‐UeGFP mice; test: UMN apical dendrites with vacuoles, prpTDP‐43^A315T‐UeGFP mice; assay type: in vivo
# Method: as §1
# Mice were deeply anesthetized using ketamine (90 mg/kg) with xylazine (10 mg/kg), and transcardially perfused with 4% PFA in PBS. The brains were removed intact and postfixed (4% PFA, overnight) and stored in PBS with sodium azide (0.01%) at 4°C. Sections were cut in a coronal (50 µm) plane using a vibratome (Leica) and processed for immunocytochemical analyses.
# The antibodies used are as follows: anti‐GFP (1:1000, Invitrogen; or 1:1000, Abcam) and anti‐misfolded SOD1 (B8H10, 1:250, Médimabs). Briefly, sections were treated with blocking solution (PBS, 0.05% BSA, 2% FBS, 1% Triton X‐100, and 0.1% saponin) for 30 min at room temperature and incubated with primary antibody diluted in blocking solution overnight at 4°C. Appropriate secondary fluorescent antibodies (1:500, AlexaFluor‐conjugated, Invitrogen) were added to the blocking solution at room temperature for 2 h in the dark.
# [3] = system: UMNs in the motor cortex of prpTDP‐43^A315T‐UeGFP mice; test: UMN quantification in motor cortex, prpTDP‐43^A315T‐UeGFP mice; assay type: in vivo
# Method: as §1, §2
# WT‐UeGFP mice = test: Hanging wire test (max 60 s), WT‐UeGFP mice; assay type: in vivo; set-up: Mean Diff. (wire hanging), vehicle vs. NU-9 / Mean (wire hanging): unit not given here; conditions: for Hanging wire test, group mean (Mean 1 / Mean 2): WT-UeGFP mice; for wire hanging, Average / Mean (wire hanging): WT-UeGFP
# Method: as §1
# Behavior data were collected from hSOD1^G93A‐UeGFP and WT‐UeGFP mice (starting at P60 and every 7 days until P116) and from prpTDP‐43^A315T‐UeGFP mice (at P60, P90, and P120) with the following number of mice for each group: WT‐UeGFP vehicle (n = 10), hSOD1^G93A‐UeGFP vehicle (n = 6), WT‐UeGFP 20 mg/kg/day NU‐9 (n = 5), hSOD1^G93A‐UeGFP 20 mg/kg/day NU‐9 (n = 7), WT‐UeGFP 100 mg/kg/day NU‐9 (n = 11), hSOD1^G93A‐UeGFP 100 mg/kg/day NU‐9 (n = 9), prpTDP‐43^A315T‐UeGFP untreated (n ≥ 3), and prpTDP‐43^A315T‐UeGFP 100 mg/kg/day NU‐9 (n = 4) (Table S3).
# Mice were placed on a wire mesh, which was then inverted and suspended above the home cage; the time when the animal fell was recorded. This test was performed three times for a maximum of 60 s each session, with a 1‐min rest period between each trial. The average performance for each session is presented as the average of the three trials.
# mice = conditions: cited from earlier work
# [4] = WT-UeGFP mice, NU-9 100 mg/kg/day
# [5] = WT-UeGFP vehicle minus NU-9 100 mg/kg/day, Tukey's multiple comparisons test
# [6] = prpTDP43A315T-UeGFP untreated minus NU-9 100 mg/kg/day, Tukey's multiple comparisons test
# [7] = prpTDP-43A315T-UeGFP mice, NU-9 100 mg/kg/day
# [8] = prpTDP‐43^A315T‐UeGFP mice, 100 mg/kg/day oral gavage P60–P120
# [9] = WT-UeGFP vehicle vs. NU-9 20 mg/kg/day, P102
# [10] = WT-UeGFP vehicle vs. NU-9 20 mg/kg/day, P109
# [11] = WT-UeGFP vehicle vs. NU-9 20 mg/kg/day, P116
# [12] = WT-UeGFP vehicle vs. NU-9 100 mg/kg/day, P102
# [13] = WT-UeGFP vehicle vs. NU-9 100 mg/kg/day, P109
# [14] = WT-UeGFP vehicle vs. NU-9 100 mg/kg/day, P116
smiles,measurement,setting,value
C[C@H](Oc1cc(C(F)(F)F)cc(C(F)(F)F)c1)C1CC(=O)CC(=O)C1 [NU‐9],penetration into neurons,cortical neurons,penetrated cortical neurons
same,"Mean, Fig. 5E (UMN quantification in motor cortex)",[1]; [4],65.5
same,"Mean, Fig. 7H (UMN quantification in motor cortex)",[1]; [4],65.5
same,"Mean Diff., Fig. 5E, G Vehicle vs. G NU-9 (100)",[1]; [5],-6.183
same,"Mean Diff., Fig. 7H, G Vehicle vs. G NU-9 (100)",[1]; [5],-6.183
same,average number of UMNs per section in the motor cortex,"[1]; WT‐UeGFP mice, 100 mg/kg/day oral gavage P60–P120",66 ± 1 UMNs
same,"Mean Diff., Fig. 7E, GT Untreated vs. GT NU-9 (100)",[2]; [6],70.28
same,"Mean, Fig. 7E (UMN apical dendrites with vacuoles)",[2]; [7],10.93
same,percentage of UMNs with vacuolated primary apical dendrites,[2]; [8],11% ± 1%
same,"Mean Diff., Fig. 7H, GT Untreated vs. GT NU-9 (100)",[3]; [6],-22.58
same,"Mean, Fig. 7H (UMN quantification in motor cortex)",[3]; [7],59.17
same,average number of UMNs in the motor cortex,[3]; [8],59 ± 3 UMNs
same,"Hanging wire test, group mean (Mean 1 / Mean 2)","WT‐UeGFP mice; NU-9 20 mg/kg/day, P102, max 60 s",60 s
same,"Hanging wire test, group mean (Mean 1 / Mean 2)","WT‐UeGFP mice; NU-9 20 mg/kg/day, P109, max 60 s",60 s
same,"Hanging wire test, group mean (Mean 1 / Mean 2)","WT‐UeGFP mice; NU-9 20 mg/kg/day, P116, max 60 s",60 s
same,"Hanging wire test, group mean (Mean 1 / Mean 2)","WT‐UeGFP mice; NU-9 100 mg/kg/day, P102, max 60 s",60 s
same,"Hanging wire test, group mean (Mean 1 / Mean 2)","WT‐UeGFP mice; NU-9 100 mg/kg/day, P109, max 60 s",60 s
same,"Hanging wire test, group mean (Mean 1 / Mean 2)","WT‐UeGFP mice; NU-9 100 mg/kg/day, P116, max 60 s",59.7 s
same,"Mean Diff. (wire hanging), vehicle vs. NU-9","WT‐UeGFP mice; WT-UeGFP vehicle vs. NU-9 20 mg/kg/day, P60",0
same,"Mean Diff. (wire hanging), vehicle vs. NU-9","WT‐UeGFP mice; WT-UeGFP vehicle vs. NU-9 20 mg/kg/day, P67",0.3333
same,"Mean Diff. (wire hanging), vehicle vs. NU-9","WT‐UeGFP mice; WT-UeGFP vehicle vs. NU-9 20 mg/kg/day, P74",2.267
same,"Mean Diff. (wire hanging), vehicle vs. NU-9","WT‐UeGFP mice; WT-UeGFP vehicle vs. NU-9 20 mg/kg/day, P81",0
same,"Mean Diff. (wire hanging), vehicle vs. NU-9","WT‐UeGFP mice; WT-UeGFP vehicle vs. NU-9 20 mg/kg/day, P88",0
same,"Mean Diff. (wire hanging), vehicle vs. NU-9","WT‐UeGFP mice; WT-UeGFP vehicle vs. NU-9 20 mg/kg/day, P95",2
same,"Hanging wire test, mean difference vehicle minus NU-9",WT‐UeGFP mice; [9],0 s
same,"Mean Diff. (wire hanging), vehicle vs. NU-9",WT‐UeGFP mice; [9],0
same,"Hanging wire test, mean difference vehicle minus NU-9",WT‐UeGFP mice; [10],0 s
same,"Mean Diff. (wire hanging), vehicle vs. NU-9",WT‐UeGFP mice; [10],0
same,"Hanging wire test, mean difference vehicle minus NU-9",WT‐UeGFP mice; [11],0 s
same,"Mean Diff. (wire hanging), vehicle vs. NU-9",WT‐UeGFP mice; [11],0
same,"Mean Diff. (wire hanging), vehicle vs. NU-9","WT‐UeGFP mice; WT-UeGFP vehicle vs. NU-9 100 mg/kg/day, P60",1.273
same,"Mean Diff. (wire hanging), vehicle vs. NU-9","WT‐UeGFP mice; WT-UeGFP vehicle vs. NU-9 100 mg/kg/day, P67",0
same,"Mean Diff. (wire hanging), vehicle vs. NU-9","WT‐UeGFP mice; WT-UeGFP vehicle vs. NU-9 100 mg/kg/day, P74",0
same,"Mean Diff. (wire hanging), vehicle vs. NU-9","WT‐UeGFP mice; WT-UeGFP vehicle vs. NU-9 100 mg/kg/day, P81",0
same,"Mean Diff. (wire hanging), vehicle vs. NU-9","WT‐UeGFP mice; WT-UeGFP vehicle vs. NU-9 100 mg/kg/day, P88",0.1818
same,"Mean Diff. (wire hanging), vehicle vs. NU-9","WT‐UeGFP mice; WT-UeGFP vehicle vs. NU-9 100 mg/kg/day, P95",0
same,"Hanging wire test, mean difference vehicle minus NU-9",WT‐UeGFP mice; [12],0 s
same,"Mean Diff. (wire hanging), vehicle vs. NU-9",WT‐UeGFP mice; [12],0
same,"Hanging wire test, mean difference vehicle minus NU-9",WT‐UeGFP mice; [13],0 s
same,"Mean Diff. (wire hanging), vehicle vs. NU-9",WT‐UeGFP mice; [13],0
same,"Hanging wire test, mean difference vehicle minus NU-9",WT‐UeGFP mice; [14],0.303 s
same,"Mean Diff. (wire hanging), vehicle vs. NU-9",WT‐UeGFP mice; [14],0.303
same,"wire hanging, Average","WT‐UeGFP mice; NU-9 20 mg/kg/day po, P60",60 s
same,"wire hanging, Average","WT‐UeGFP mice; NU-9 20 mg/kg/day po, P67",59.6667 s
same,"wire hanging, Average","WT‐UeGFP mice; NU-9 20 mg/kg/day po, P74",57.7333 s
same,"wire hanging, Average","WT‐UeGFP mice; NU-9 20 mg/kg/day po, P81",60 s
same,"wire hanging, Average","WT‐UeGFP mice; NU-9 20 mg/kg/day po, P88",60 s
same,"wire hanging, Average","WT‐UeGFP mice; NU-9 20 mg/kg/day po, P95",58 s
same,"wire hanging, Average","WT‐UeGFP mice; NU-9 20 mg/kg/day po, P102",60 s
same,"wire hanging, Average","WT‐UeGFP mice; NU-9 20 mg/kg/day po, P109",60 s
same,"wire hanging, Average","WT‐UeGFP mice; NU-9 20 mg/kg/day po, P116",60 s
same,Mean (wire hanging),"WT‐UeGFP mice; NU-9 20 mg/kg/day, P60",60
same,Mean (wire hanging),"WT‐UeGFP mice; NU-9 20 mg/kg/day, P67",59.67
same,Mean (wire hanging),"WT‐UeGFP mice; NU-9 20 mg/kg/day, P74",57.73
same,Mean (wire hanging),"WT‐UeGFP mice; NU-9 20 mg/kg/day, P81",60
same,Mean (wire hanging),"WT‐UeGFP mice; NU-9 20 mg/kg/day, P88",60
same,Mean (wire hanging),"WT‐UeGFP mice; NU-9 20 mg/kg/day, P95",58
same,"wire hanging, Average","WT‐UeGFP mice; NU-9 100 mg/kg/day po, P60",58.7273 s
same,"wire hanging, Average","WT‐UeGFP mice; NU-9 100 mg/kg/day po, P67",60 s
same,"wire hanging, Average","WT‐UeGFP mice; NU-9 100 mg/kg/day po, P74",60 s
same,"wire hanging, Average","WT‐UeGFP mice; NU-9 100 mg/kg/day po, P81",60 s
same,"wire hanging, Average","WT‐UeGFP mice; NU-9 100 mg/kg/day po, P88",59.8182 s
same,"wire hanging, Average","WT‐UeGFP mice; NU-9 100 mg/kg/day po, P95",60 s
same,"wire hanging, Average","WT‐UeGFP mice; NU-9 100 mg/kg/day po, P102",60 s
same,"wire hanging, Average","WT‐UeGFP mice; NU-9 100 mg/kg/day po, P109",60 s
same,"wire hanging, Average","WT‐UeGFP mice; NU-9 100 mg/kg/day po, P116",59.697 s
same,Mean (wire hanging),"WT‐UeGFP mice; NU-9 100 mg/kg/day, P60",58.73
same,Mean (wire hanging),"WT‐UeGFP mice; NU-9 100 mg/kg/day, P67",60
same,Mean (wire hanging),"WT‐UeGFP mice; NU-9 100 mg/kg/day, P74",60
same,Mean (wire hanging),"WT‐UeGFP mice; NU-9 100 mg/kg/day, P81",60
same,Mean (wire hanging),"WT‐UeGFP mice; NU-9 100 mg/kg/day, P88",59.82
same,Mean (wire hanging),"WT‐UeGFP mice; NU-9 100 mg/kg/day, P95",60
same,MTD,mice; ip,1280 mg/kg
same,NOAEL,"mice; po, 7‐day repeat toxicology study",100 mg/kg
